Earlier results, collected in patent publication US9445622B2, “Compositions and methods for improving creatine solubility and stability” (Glanbia Nutritionals (Ireland) Ltd., priority 2009, dated 2016).

Conditions: solid form, over years, even at elevated temperatures

## CN(CC(=O)O)C(=N)N.O [creatine monohydrate powder, creatine monohydrate]
  stability of solid powder: no signs of degradation
